Data set [1] has as its system Trypanosoma brucei brucei. Put plainly: MMV: Inhibition of Trypanosoma brucei brucei (Squib 427) (HAT in vitro). The data set is classed as functional, organism-based.
Data set [2] has as its system Plasmodium falciparum. Put plainly: MMV: Inhibition of Plasmodium falciparum 3D7 (EC50). The data set is classed as functional, organism-based.
Data set [3] concerns Plasmodium falciparum. Put plainly: MMV: Inhibition of Plasmodium falciparum 3D7 at 5uM compound concentration. The data set is classed as functional.
Data set [4] can be described thus: MMV: Cytotoxicity against human fibroblasts (MRC-5) cells. Particulars: MRC-5 cells (human fibroblasts).
For the next data set, the system named is Trypanosoma cruzi. Put plainly: MMV: Inhibition of Trypanosoma cruzi (Tulahuen C4 LacZ) (Chagas in vitro). The data set is classed as functional, organism-based.
In the next data set the test system is Leishmania infantum. The data set is described as follows: MMV: Inhibition of Leishmania infantum (MHOM/MA/BE/67) in vitro. The data set is classed as functional, organism-based.
Data set [5] relates to Trypanosoma brucei rhodesiense. Put plainly: MMV: Inhibition of Trypanosoma brucei rhodesiense (STIB 900) (HAT in vitro). The data set is classed as functional, organism-based.
Data set [6] relates to Plasmodium falciparum. Put plainly: MMV: Inhibition of Plasmodium falciparum K1 (EC50). The data set is classed as functional, organism-based.

With `COc1ccc(Nc2nc(N/N=C/c3ccc(O)cc3)nc(Nc3ccc([N+](=O)[O-])cc3)n2)cc1`, the IC50 was 14.7 µM in data set [1]; greater than 32 µM in data set [4]; 18.6 µM with Trypanosoma cruzi; 21.5 µM in the data set with Leishmania infantum; 9.88 µM in data set [5]. Besides, the EC50 with Plasmodium falciparum [2] was determined as 0.532 µM. The same compound had an inhibition at 5 µM with Plasmodium falciparum [3] of 98%.
`Cc1nc2ccccc2c(O)c1CC=C(Cl)Cl`: the IC50 in data set [1] was greater than 32 µM; in data set [4] it was greater than 32 µM; with Trypanosoma cruzi, 1.88 µM; in the data set on Leishmania infantum it was greater than 32 µM; in data set [5], greater than 32 µM. In the data set on Plasmodium falciparum [2], the EC50 was 0.836 µM. Besides, in the data set with Plasmodium falciparum [3], the inhibition at 5 µM was determined as 89%.
As for `O=C(NC1CCCCC1)C(c1cccs1)N(CCc1ccccc1)C(=O)c1ccco1` (stereo not drawn), the IC50 in data set [1] is greater than 32 µM; in data set [4], greater than 32 µM; in the data set on Trypanosoma cruzi, greater than 32 µM; in the data set on Leishmania infantum, greater than 32 µM; in data set [5], 19.2 µM. In the data set on Plasmodium falciparum [2], this compound had an EC50 of 1.07 µM. This compound registered an inhibition at 5 µM with Plasmodium falciparum [3] of 90%.
As for `O=[N+]([O-])c1ccc(C=NNc2nc3ccccc3[nH]2)cc1`, the IC50 in data set [1] is greater than 32 µM; in data set [4], greater than 32 µM; in the data set with Trypanosoma cruzi, greater than 32 µM; in the data set on Leishmania infantum, 16.2 µM; in data set [5], greater than 32 µM. Besides, in the data set on Plasmodium falciparum [2], the EC50 was determined as 0.142 µM. Further, the inhibition at 5 µM in the data set with Plasmodium falciparum [3] amounted to 99%.
As for `COc1ccc(CCN2CCC(CN(C)Cc3cnn(-c4ccccc4)c3)CC2)cc1`, the half-inhibitory concentration (IC50) in data set [1] was determined as 0.86 µM; in data set [4], 18.6 µM; with Trypanosoma cruzi it was 6.43 µM; in the data set with Leishmania infantum it was 12 µM; in data set [5], 0.254 µM. This compound also displayed an EC50 with Plasmodium falciparum [2] of 1.43 µM. Besides, testing at 5 µM in the data set on Plasmodium falciparum [3] gave an inhibition of 96%.
As for `CCN(CC)CCn1c(=N)n(CC(O)c2ccc(Cl)c(Cl)c2)c2ccccc21` (stereo not drawn), the IC50 was determined as 0.908 µM in data set [1]; 16.1 µM in data set [4]; 3.82 µM in the data set on Trypanosoma cruzi; 1 µM in the data set with Leishmania infantum; 1.02 µM in data set [5]. For the same compound, the inhibition at 5 µM in the data set on Plasmodium falciparum [3] amounted to 97%. Besides, the EC50 with Plasmodium falciparum [6] was found to be 0.575 µM.
For `O=C(CCc1ccco1)NC1CCN(CC2(c3ccc(Cl)cc3)CCC2)CC1`, the IC50 in data set [1] was 2.89 µM; in data set [4], greater than 32 µM; with Trypanosoma cruzi, 16.6 µM; with Leishmania infantum it was 19 µM; in data set [5], 1.01 µM. The EC50 with Plasmodium falciparum [2] worked out at 1.14 µM. For the same compound, 5 µM produced 96% inhibition in the data set on Plasmodium falciparum [3].
On to `COCCN(C(=O)Cc1cccs1)C(C(=O)NCc1ccc(OC)cc1)c1ccc(C(C)C)cc1` (stereo not drawn), for which the IC50 in data set [1] is 16.2 µM; in data set [4], 27 µM; with Trypanosoma cruzi it was 16.3 µM; in the data set on Leishmania infantum it was greater than 32 µM; in data set [5], 16.2 µM. The compound further returned an EC50 in the data set with Plasmodium falciparum [2] of 1.19 µM. The compound further came in with an inhibition at 5 µM in the data set with Plasmodium falciparum [3] of 92%.
Regarding `C=CC12CCN(CC1)C(C(O)c1ccnc3ccc(OC)cc13)C2` (stereo not drawn), the IC50 is greater than 32 µM in data set [1]; greater than 32 µM in data set [4]; greater than 32 µM with Trypanosoma cruzi; greater than 32 µM with Leishmania infantum; 16 µM in data set [5]. For the same compound, the EC50 with Plasmodium falciparum [6] amounted to 0.0281 µM.
Regarding `Cc1ccc2cc3c(N)c4c(C)ccc(C)c4nc3nc2c1`, the IC50 was 4.09 µM in data set [1]; 11.4 µM in data set [4]; 4.56 µM with Trypanosoma cruzi; 4.32 µM in the data set on Leishmania infantum; 1.19 µM in data set [5]. Also, the EC50 in the data set with Plasmodium falciparum [2] was 1.31 µM. The same compound showed an inhibition at 5 µM in the data set on Plasmodium falciparum [3] of 98%.
`CCn1c(SCC(=O)Nc2cc(C(F)(F)F)ccc2Cl)nc2ccccc2c1=O`: the IC50 (in data set [1]; in data set [4]; in the data set with Trypanosoma cruzi; in the data set on Leishmania infantum; in data set [5]) was greater than 32 µM in each case. In the data set with Plasmodium falciparum [2], the 50% effective concentration (EC50) turned out to be 1 µM. Further, the inhibition at 5 µM in the data set with Plasmodium falciparum [3] was 91%.
Turning to `CCc1ccc(CNCC(O)c2ccccc2)cc1` (stereo not drawn), the IC50 is 13.3 µM in data set [1]; greater than 32 µM in data set [4]; greater than 32 µM in the data set on Trypanosoma cruzi; 25.4 µM in the data set on Leishmania infantum; 4.03 µM in data set [5]. In the data set with Plasmodium falciparum [3], this compound yielded an inhibition at 5 µM of 97%. Further, in the data set with Plasmodium falciparum [6], the midpoint of the response, the EC50, lay at 0.65 µM.
On to `CC(C)(C)CC(C)(C)NCC(O)COc1ccc2c(c1)CCC2` (stereo not drawn), for which the IC50 came out at 3.49 µM in data set [1]; 26.1 µM in data set [4]; 15.7 µM with Trypanosoma cruzi; 4.76 µM in the data set with Leishmania infantum; 1.02 µM in data set [5]. In the data set on Plasmodium falciparum [3], this compound gave an inhibition at 5 µM of 78%. Moreover, the EC50 in the data set on Plasmodium falciparum [6] was 1.08 µM.
For the compound `CC(O)(c1ccc(Cl)cc1)C(CN1CCCCC1)c1ccccc1` (stereo not drawn), the IC50 in data set [1] is 16.1 µM; in data set [4], greater than 32 µM; in the data set with Trypanosoma cruzi it was greater than 32 µM; with Leishmania infantum, greater than 32 µM; in data set [5] it was 14.8 µM. Further, at 5 µM the inhibition with Plasmodium falciparum [3] was 94%. In the data set on Plasmodium falciparum [6], this compound had an EC50 of 0.576 µM.
Take `Cc1cc(=O)oc2c1ccc1oc(C(=O)c3ccccc3)c(C)c12`: the IC50 in data set [1] is greater than 32 µM; in data set [4] it was 6.35 µM; with Trypanosoma cruzi, greater than 32 µM; with Leishmania infantum, greater than 32 µM; in data set [5], 20.8 µM. Further, in the data set on Plasmodium falciparum [3], the inhibition at 5 µM is 94%. Moreover, in the data set with Plasmodium falciparum [6], the EC50 was found to be 0.683 µM.
As for `Oc1ccc(Br)cc1CN1CCN(Cc2ccc(Cl)cc2)CC1`, the IC50 is greater than 32 µM in data set [1]; greater than 32 µM in data set [4]; 8.28 µM in the data set on Trypanosoma cruzi; greater than 32 µM in the data set on Leishmania infantum; 14.9 µM in data set [5]. In addition, 5 µM produced 97% inhibition in the data set on Plasmodium falciparum [3]. In the data set with Plasmodium falciparum [6], this compound gave an EC50 of 0.899 µM.
Regarding `CCCc1c(C)nc2ccc(Br)cc2c1O`, the IC50 (in data set [1]; in data set [4]; with Trypanosoma cruzi; with Leishmania infantum; in data set [5]) was greater than 32 µM in each case. In the data set on Plasmodium falciparum [2], a half-maximal effect (EC50) was put at 1.19 µM. Further, in the data set with Plasmodium falciparum [3], the inhibition at 5 µM came out at 64%.
With `CC1=C(CC(=O)c2cccc([N+](=O)[O-])c2)C(=O)c2ccccc2C1=O`, the 50% inhibitory concentration (IC50) in data set [1] was 14.5 µM; in data set [4], greater than 32 µM; with Trypanosoma cruzi, 13.4 µM; in the data set with Leishmania infantum it was greater than 32 µM; in data set [5], 16 µM. The compound further showed an EC50 with Plasmodium falciparum [2] of 0.381 µM. The compound also had an inhibition at 5 µM in the data set on Plasmodium falciparum [3] of 95%.
Take `CCOc1c(Cl)cc(CNC(C)C(O)c2ccccc2)cc1OC` (stereo not drawn): the IC50 is 9.51 µM in data set [1]; greater than 32 µM in data set [4]; greater than 32 µM in the data set on Trypanosoma cruzi; 16.6 µM in the data set with Leishmania infantum; 4.09 µM in data set [5]. In addition, testing at 5 µM in the data set on Plasmodium falciparum [3] gave an inhibition of 98%. In the data set on Plasmodium falciparum [6], the response was half-maximal at 0.706 µM (EC50).
Turning to `CCCCCn1c(=N)n(CC(O)COc2cccc(C)c2)c2ccccc21` (stereo not drawn), the IC50 in data set [1] worked out at 0.923 µM; in data set [4] it was 15.5 µM; in the data set on Trypanosoma cruzi, 4.21 µM; in the data set with Leishmania infantum, 3.41 µM; in data set [5], 0.986 µM. Moreover, the inhibition at 5 µM in the data set on Plasmodium falciparum [3] was 96%. The same compound came in with an EC50 in the data set with Plasmodium falciparum [6] of 1.25 µM.
As to `CN1c2ccccc2N(C)C1c1ccc2c(c1)OCO2`, the IC50 (in data set [1]; in data set [4]; in the data set on Trypanosoma cruzi; in the data set on Leishmania infantum; in data set [5]) was greater than 32 µM throughout. In addition, the midpoint of the response in the data set with Plasmodium falciparum [2], the EC50, lay at 0.994 µM. This compound came in with an inhibition at 5 µM in the data set on Plasmodium falciparum [3] of 60%.
Take `C=C(C)CCC(C)N1CCC(N2CCC(C(=O)NCCc3ccccc3)CC2)CC1` (stereo not drawn): the IC50 in data set [1] is 17.7 µM; in data set [4], 19 µM; in the data set on Trypanosoma cruzi, 18.2 µM; in the data set with Leishmania infantum, greater than 32 µM; in data set [5], 7.79 µM. In addition, the concentration giving a half-maximal response (EC50) with Plasmodium falciparum [2] worked out at 1.75 µM. The same compound showed an inhibition at 5 µM with Plasmodium falciparum [3] of 96%.

These data come from ChEMBL document CHEMBL2028040, “Malaria Box”.
